Values of other authors as cited in patent US9084801B2, “Use of an omega-3 lipid-based emulsion following ischemic injury to provide protection and recovery in human organs” (THE TRUSTEES OF COLUMBIA UNIVERSITY IN THE CITY OF NEW YORK, priority 2005, dated 2015).

Tests used:
[1] = test system: adult Sprague-Dawley rats, global ischemia via four vessel occlusion; settings: intravenous, given before and/or after neurologic insult
[2] = test system: adult Sprague-Dawley rats, kainate-induced seizures; settings: intravenous, given before and/or after neurologic insult

For `CC/C=C\C/C=C\C/C=C\CCCCCCCC(=O)O` [α-linolenic acid], the “protection in global ischemia” value [1] is listed as “protective” and the “protection in kainate-induced seizures” value [2] is listed as “protective”.
